US20250154169A1, “COMPOUNDS AND METHODS FOR MODULATING SPLICING” (REMIX THERAPEUTICS INC., priority 2021, published 2025)
Read-outs that look alike come from different tables or passages of the source.

Experiments:
Type in all cases: cell-based, human
HTT mRNA [1] = test: Splicing RT-qPCR assay, HTT canonical (CJ) and alternative (AJ) junction mRNA
Procedure, shortened: (§1)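 Canonical (CJ) and alternative-exon (AJ) junction mRNAs quantified by one-step RT-qPCR in cell lysates, normalized to housekeeping PPIA for A673 and GAPDH or GUSB for K562. Cells were exposed 24 h at 37 °C to 11-point 3-fold compound series from 10 uM final, with DMSO at or below 0.25%.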

MYB mRNA = test: Splicing RT-qPCR assay, MYB canonical (CJ) and alternative (AJ) junction mRNA
Procedure, shortened: as §1

SMN2 mRNA = test: Splicing RT-qPCR gene panel, SMN2 canonical junction (CJ) mRNA; details: Tables 4A/4B, read-out: SMN2 (IC50, decrease in CJ mRNA, gene panel)
Procedure, shortened: (§2)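 A673 or K562 cells were treated 24 h at 37 °C with an 11-point 3-fold dilution series (top 10 uM, ≤0.25% DMSO). Canonical-junction mRNA was measured in lysates by one-step RT-qPCR, normalized to GAPDH, GUSB or PPIA and DMSO control (2^(−ΔΔCt)), expressed as percentage response.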

Target C mRNA = test: Splicing RT-qPCR gene panel, Target C canonical junction (CJ) mRNA; details: Tables 4A/4B, read-out: Target C (IC50, decrease in CJ mRNA, gene panel)
Procedure, shortened: as §2

HTT mRNA [2] = test: Splicing RT-qPCR gene panel, HTT canonical junction (CJ) mRNA; details: Tables 4A/4B, read-out: HTT (IC50, decrease in CJ mRNA, gene panel)
Procedure, shortened: as §2

[3] = Homo sapiens, 24 h, A673 or K562 cells, 24 hours compound treatment, read-out: HTT CJ (IC50, decrease in canonical junction mRNA)
[4] = Homo sapiens, A673 or K562 cells, 24 hours compound treatment, read-out: HTT AJ (AC50, increase in alternative junction mRNA)
[5] = Homo sapiens, 24 h, A673 or K562 cells, 24 hours compound treatment, RT-qPCR, read-out: MYB AJ (AC50, increase in alternative junction mRNA)
[6] = Homo sapiens, 24 h, A673 or K562 cells, 24 hours compound treatment, RT-qPCR, read-out: MYB CJ (IC50, decrease in canonical junction mRNA)
[7] = Homo sapiens, Tables 4A/4B, canonical junction qPCR panel, read-out: MYB (IC50, decrease in CJ mRNA, gene panel)

SMILES	IC50 (HTT mRNA [1]; [3])	IC50 (MYB mRNA; [6])	IC50 (MYB mRNA; [7])	IC50 (SMN2 mRNA; Homo sapiens)	IC50 (Target C mRNA; Homo sapiens)	IC50 (HTT mRNA [2]; Homo sapiens)	IC50 (HTT mRNA [1]; Homo sapiens, Table 3B, canonical junction mRNA, read-out: HTT CJ (IC50, decrease in CJ mRNA))	IC50 (MYB mRNA; Homo sapiens, Table 3B, canonical junction mRNA, RT-qPCR, read-out: MYB CJ (IC50, decrease in CJ mRNA))	IC50 (HTT mRNA [1]; A673 or K562 cells, 24 hours compound treatment, read-out: HTT CJ (IC50, decrease in canonical junction mRNA))	IC50 (MYB mRNA; A673 or K562 cells, 24 hours compound treatment, RT-qPCR, read-out: MYB CJ (IC50, decrease in canonical junction mRNA))	IC50 (MYB mRNA; Tables 4A/4B, canonical junction qPCR panel, read-out: MYB (IC50, decrease in CJ mRNA, gene panel))	IC50 (SMN2 mRNA)	IC50 (Target C mRNA)	IC50 (HTT mRNA [2])	AC50 (HTT mRNA [1]; [4])	AC50 (MYB mRNA; [5])	AC50 (HTT mRNA [1]; Homo sapiens, Table 3B, alternative junction mRNA, read-out: HTT AJ (AC50, increase in AJ mRNA))	AC50 (MYB mRNA; Homo sapiens, Table 3B, alternative junction mRNA, RT-qPCR, read-out: MYB AJ (AC50, increase in AJ mRNA))	AC50 (HTT mRNA [1]; A673 or K562 cells, 24 hours compound treatment, read-out: HTT AJ (AC50, increase in alternative junction mRNA))	AC50 (MYB mRNA; A673 or K562 cells, 24 hours compound treatment, RT-qPCR, read-out: MYB AJ (AC50, increase in alternative junction mRNA))
Cc1cn2cc(NC(=O)c3ccc(N4C[C@@H](C)N[C@@H](C)C4)c4cn(C)nc34)cc(F)c2n1 [Compound 326, 4-[(3R,5S)-3,5-dimethylpiperazin-1-yl]-N-{8-fluoro-2-methylimidazo[1,2-a]pyridin-6-yl}-2-methylindazole-7-carboxamide]	100 to 1000 nM	< 100 nM	< 100 nM	< 100 nM	1000 to 10000 nM	100 to 1000 nM	–	–	–	–	–	–	–	–	100 to 1000 nM	< 100 nM	–	–	–	–
Cc1cn2cc(NC(=O)c3ccc(N4CCNCC4)c4cn(CC#N)nc34)cc(F)c2n1 [Compound 413, 2-(cyanomethyl)-N-{8-fluoro-2-methylimidazo[1,2-a]pyridin-6-yl}-4-(piperazin-1-yl) indazole-7-carboxamide]	1000 to 10000 nM	< 100 nM	< 100 nM	< 100 nM	> 10000 nM	1000 to 10000 nM	–	–	–	–	–	–	–	–	1000 to 10000 nM	< 100 nM	–	–	–	–
Cc1cc2c(N3CCNCC3)ccc(C(=O)Nc3cc(F)c4nc(C)sc4c3)c2o1 [Compound 219]	> 10000 nM	100 to 1000 nM	100 to 1000 nM	100 to 1000 nM	> 10000 nM	> 10000 nM	–	–	–	–	–	–	–	–	> 10000 nM	1000 to 10000 nM	–	–	–	–
CCNC1CCN(c2ccc(C(=O)Nc3cc(F)c4nc(C)sc4c3)c3nn(C)cc23)CC1 [Compound 443, 4-[4-(ethylamino)piperidin-1-yl]-N-(4-fluoro-2-methyl-1,3-benzothiazol-6-yl)-2-methylindazole-7-carboxamide]	1000 to 10000 nM	< 100 nM	100 to 1000 nM	< 100 nM	> 10000 nM	1000 to 10000 nM	–	–	–	–	–	–	–	–	1000 to 10000 nM	< 100 nM	–	–	–	–
Cc1cn2cc(NC(=O)c3ccc(N4CCC(C)(N)CC4)c4cn(C)nc34)cc(F)c2n1 [Compound 336, 4-(4-amino-4-methylpiperidin-1-yl)-N-{8-fluoro-2-methylimidazo[1,2-a]pyridin-6-yl}-2-methylindazole-7-carboxamide]	100 to 1000 nM	< 100 nM	< 100 nM	< 100 nM	100 to 1000 nM	100 to 1000 nM	–	–	–	–	–	–	–	–	100 to 1000 nM	< 100 nM	–	–	–	–
COCCOc1nc2c(C(=O)Nc3cc(F)c4nc(C)cn4c3)ccc(N3CCNCC3)c2o1 [Compound 385, N-{8-fluoro-2-methylimidazo[1,2-a]pyridin-6-yl}-2-(2-methoxyethoxy)-7-(piperazin-1-yl)-1,3-benzoxazole-4-carboxamide]	> 10000 nM	> 10000 nM	> 10000 nM	> 10000 nM	> 10000 nM	> 10000 nM	–	–	–	–	–	–	–	–	> 10000 nM	> 10000 nM	–	–	–	–
Cc1cc2c(N3CCNCC3)ccc(C(=O)Nc3ccc4cn(C)nc4c3)c2o1 [Compound 261]	> 10000 nM	> 10000 nM	> 10000 nM	1000 to 10000 nM	> 10000 nM	> 10000 nM	–	–	–	–	–	–	–	–	> 10000 nM	> 10000 nM	–	–	–	–
Cc1cn2cc(NC(=O)c3ccc(N(C)C4CC(C)(C)NC(C)(C)C4)c4cn(C)nc34)cc(F)c2n1 [Compound 244]	> 10000 nM	> 10000 nM	> 10000 nM	100 to 1000 nM	> 10000 nM	> 10000 nM	–	–	–	–	–	–	–	–	> 10000 nM	> 10000 nM	–	–	–	–
Cc1cn2cc(NC(=O)c3ccc(N4CCNCC4)c4cn(C)nc34)c(C#N)cc2n1 [Compound 452, N-{7-cyano-2-methylimidazo[1,2-a]pyridin-6-yl}-2-methyl-4-(piperazin-1-yl) indazole-7-carboxamide]	–	–	–	–	–	–	–	–	> 10000 nM	1000 to 10000 nM	1000 to 10000 nM	100 to 1000 nM	> 10000 nM	> 10000 nM	–	–	–	–	> 10000 nM	1000 to 10000 nM
CN[C@@H]1CCN(c2ccc(C(=O)Nc3cn4cc(C)nc4c(OC)n3)c3nn(CCOC)cc23)C1 [Compound 431, (R)—N-(8-methoxy-2-methylimidazo[1,2-a]pyrazin-6-yl)-2-(2-methoxyethyl)-4-(3-(methylamino)pyrrolidin-1-yl)-2H-indazole-7-carboxamide]	> 10000 nM	100 to 1000 nM	< 100 nM	< 100 nM	1000 to 10000 nM	1000 to 10000 nM	–	–	–	–	–	–	–	–	> 10000 nM	100 to 1000 nM	–	–	–	–
CCn1cc2c(N3CCNCC3)cc(F)c(C(=O)Nc3cc(F)c4nc(C)cn4c3)c2n1 [Compound 474, 2-ethyl-6-fluoro-N-{8-fluoro-2-methylimidazo[1,2-a]pyridin-6-yl}-4-(piperazin-1-yl) indazole-7-carboxamide]	< 100 nM	< 100 nM	< 100 nM	< 100 nM	1000 to 10000 nM	100 to 1000 nM	–	–	–	–	–	–	–	–	100 to 1000 nM	< 100 nM	–	–	–	–

More lines, main results first:

IC50 (HTT mRNA [1]; [3])	IC50 (MYB mRNA; [6])	IC50 (MYB mRNA; [7])	IC50 (SMN2 mRNA; Homo sapiens)	IC50 (Target C mRNA; Homo sapiens)	IC50 (HTT mRNA [2]; Homo sapiens)	IC50 (HTT mRNA [1]; Homo sapiens, Table 3B, canonical junction mRNA, read-out: HTT CJ (IC50, decrease in CJ mRNA))	IC50 (MYB mRNA; Homo sapiens, Table 3B, canonical junction mRNA, RT-qPCR, read-out: MYB CJ (IC50, decrease in CJ mRNA))	IC50 (HTT mRNA [1]; A673 or K562 cells, 24 hours compound treatment, read-out: HTT CJ (IC50, decrease in canonical junction mRNA))	IC50 (MYB mRNA; A673 or K562 cells, 24 hours compound treatment, RT-qPCR, read-out: MYB CJ (IC50, decrease in canonical junction mRNA))	IC50 (MYB mRNA; Tables 4A/4B, canonical junction qPCR panel, read-out: MYB (IC50, decrease in CJ mRNA, gene panel))	IC50 (SMN2 mRNA)	IC50 (Target C mRNA)	IC50 (HTT mRNA [2])	SMILES	AC50 (HTT mRNA [1]; [4])	AC50 (MYB mRNA; [5])	AC50 (HTT mRNA [1]; Homo sapiens, Table 3B, alternative junction mRNA, read-out: HTT AJ (AC50, increase in AJ mRNA))	AC50 (MYB mRNA; Homo sapiens, Table 3B, alternative junction mRNA, RT-qPCR, read-out: MYB AJ (AC50, increase in AJ mRNA))	AC50 (HTT mRNA [1]; A673 or K562 cells, 24 hours compound treatment, read-out: HTT AJ (AC50, increase in alternative junction mRNA))	AC50 (MYB mRNA; A673 or K562 cells, 24 hours compound treatment, RT-qPCR, read-out: MYB AJ (AC50, increase in alternative junction mRNA))
> 10000 nM	100 to 1000 nM	100 to 1000 nM	< 100 nM	> 10000 nM	> 10000 nM	–	–	–	–	–	–	–	–	CNC1CCN(c2ccc(C(=O)Nc3cn4cc(C)nc4c(OC)n3)c3nn(CCOC)cc23)C1 (stereo not drawn) [Compound 418, N-{8-methoxy-2-methylimidazo[1,2-a]pyrazin-6-yl}-2-(2-methoxyethyl)-4-[3-(methylamino)pyrrolidin-1-yl]indazole-7-carboxamide]	> 10000 nM	1000 to 10000 nM	–	–	–	–
1000 to 10000 nM	–	< 100 nM	< 100 nM	> 10000 nM	> 10000 nM	–	–	–	–	–	–	–	–	CNC1CCN(c2ccc(C(=O)Nc3cc(F)c4nc(C)cn4c3)c3nn(C)cc23)C1 (stereo in doubt) [Compound 388, (S)—N-(8-fluoro-2-methylimidazo[1,2-a]pyridin-6-yl)-2-methyl-4-(3-(methylamino)pyrrolidin-1-yl)-2H-indazole-7-carboxamide]	1000 to 10000 nM	–	–	–	–	–
–	–	< 100 nM	< 100 nM	> 10000 nM	100 to 1000 nM	100 to 1000 nM	< 100 nM	–	–	–	–	–	–	Cc1cn2cc(NC(=O)c3ccc(N4CCNCC4)c4cc(CO)nn34)cc(F)c2n1 [Compound 955]	–	–	1000 to 10000 nM	< 100 nM	–	–
1000 to 10000 nM	< 100 nM	< 100 nM	< 100 nM	> 10000 nM	1000 to 10000 nM	–	–	–	–	–	–	–	–	CCn1cc2c(N3CC[C@@H](N(C)C)C3)cc(F)c(C(=O)Nc3cc(F)c4nc(C)cn4c3)c2n1 [Compound 473, 4-[(3R)-3-(dimethylamino)pyrrolidin-1-yl]-2-ethyl-6-fluoro-N-{8-fluoro-2-methylimidazo[1,2-a]pyridin-6-yl}indazole-7-carboxamide; bis(trifluoroacetic acid)]	1000 to 10000 nM	< 100 nM	–	–	–	–
1000 to 10000 nM	100 to 1000 nM	1000 to 10000 nM	< 100 nM	> 10000 nM	> 10000 nM	–	–	–	–	–	–	–	–	CCn1cc2c(C3OCC(C)(N)CO3)ccc(C(=O)Nc3cc(F)c4nc(C)cn4c3)c2n1 (stereo not drawn) [Compound 454, 4-(5-amino-5-methyl-1,3-dioxan-2-yl)-2-ethyl-N-{8-fluoro-2-methylimidazo[1,2-a]pyridin-6-yl}indazole-7-carboxamide]	1000 to 10000 nM	1000 to 10000 nM	–	–	–	–
